Activity calls are given as the source filed them.
Columns and labels:
[1] = biological target: ADP-ribosylation factor GTPase-activating protein 1 (Rattus norvegicus, UniProt Q62848); assay: Fluorescence polarization-based biochemical high throughput dose response screening assay to identify inhibitors of ADP-ribosylation factor GTPase activating protein 1 (ARFGAP1).; type: functional
[2] = biological target: Arf-GAP with SH3 domain, ANK repeat and PH domain-containing protein 1 (Homo sapiens, UniProt Q9ULH1); type: functional;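 note: biochemical fluorescence polarization dose–response screen measuring inhibition of ASAP1; ASAP1 GAP domain stimulating GTP hydrolysis by truncated human ARF1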
[3] = biological target: T1, Scavenger receptor class B member 1 (Mus musculus, UniProt Q61009); assay: inhibitors of SR-BI mediated HDL lipid uptake, dose response, ldlA[mSR-BI] cells, fluorescence, cherry pick (AID 493194); type: functional, cell-based;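 note: cellular uptake of fluorescent DiI-labeled HDL measured as cell fluorescence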
T1 sequence (Q61009 whole entry): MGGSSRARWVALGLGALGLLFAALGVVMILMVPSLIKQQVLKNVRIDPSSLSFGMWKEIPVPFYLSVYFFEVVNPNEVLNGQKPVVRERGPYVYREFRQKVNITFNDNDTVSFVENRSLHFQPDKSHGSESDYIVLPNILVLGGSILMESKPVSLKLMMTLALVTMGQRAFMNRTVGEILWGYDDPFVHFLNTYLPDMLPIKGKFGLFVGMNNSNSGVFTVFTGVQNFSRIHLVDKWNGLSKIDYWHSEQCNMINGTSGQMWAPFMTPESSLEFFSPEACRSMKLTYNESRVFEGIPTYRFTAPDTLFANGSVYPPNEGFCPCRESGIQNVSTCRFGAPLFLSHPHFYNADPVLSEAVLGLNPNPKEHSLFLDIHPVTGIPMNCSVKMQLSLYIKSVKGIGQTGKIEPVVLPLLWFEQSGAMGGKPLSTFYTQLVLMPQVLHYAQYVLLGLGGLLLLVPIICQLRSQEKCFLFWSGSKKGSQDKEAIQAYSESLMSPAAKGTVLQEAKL

[4] = biological target: Broad substrate specificity ATP-binding cassette transporter ABCG2 (Homo sapiens, UniProt Q9UNQ0); assay: ABCG2 efflux pump inhibitors, dose response, Ig-MXP3 cells, flow cytometry (AID 1690); type: functional
[5] = biological target: Long-chain-fatty-acid--AMP ligase FadD28 (Mycobacterium tuberculosis, UniProt P9WQ59); assay: Fluorescence polarization aasay to screen for inhibitors that compete for the binding of FadD28 to a bisubstrate Measured in Biochemical System Using Plate Reader - 2147-01_Inhibitor_Dose_CherryPick_Activity.; type: functional, Mycobacterium tuberculosis H37Rv
[6] = MDA-MB-231 cell growth inhibition, dose response, cytotoxicity control for RAD54 inhibitor project, CellTiter-Glo luminescence, cherry-pick (AID 651692); type: functional, cell-based
[7] = biological target: T2, DNA repair and recombination protein RAD54-like (Homo sapiens, UniProt Q92698); assay: inhibitors of human RAD54 branch migration, confirmation, biochemical, fluorescence, cherry-picked samples, dose series (AID 651657); type: functional
T2 sequence (Q92698 whole entry): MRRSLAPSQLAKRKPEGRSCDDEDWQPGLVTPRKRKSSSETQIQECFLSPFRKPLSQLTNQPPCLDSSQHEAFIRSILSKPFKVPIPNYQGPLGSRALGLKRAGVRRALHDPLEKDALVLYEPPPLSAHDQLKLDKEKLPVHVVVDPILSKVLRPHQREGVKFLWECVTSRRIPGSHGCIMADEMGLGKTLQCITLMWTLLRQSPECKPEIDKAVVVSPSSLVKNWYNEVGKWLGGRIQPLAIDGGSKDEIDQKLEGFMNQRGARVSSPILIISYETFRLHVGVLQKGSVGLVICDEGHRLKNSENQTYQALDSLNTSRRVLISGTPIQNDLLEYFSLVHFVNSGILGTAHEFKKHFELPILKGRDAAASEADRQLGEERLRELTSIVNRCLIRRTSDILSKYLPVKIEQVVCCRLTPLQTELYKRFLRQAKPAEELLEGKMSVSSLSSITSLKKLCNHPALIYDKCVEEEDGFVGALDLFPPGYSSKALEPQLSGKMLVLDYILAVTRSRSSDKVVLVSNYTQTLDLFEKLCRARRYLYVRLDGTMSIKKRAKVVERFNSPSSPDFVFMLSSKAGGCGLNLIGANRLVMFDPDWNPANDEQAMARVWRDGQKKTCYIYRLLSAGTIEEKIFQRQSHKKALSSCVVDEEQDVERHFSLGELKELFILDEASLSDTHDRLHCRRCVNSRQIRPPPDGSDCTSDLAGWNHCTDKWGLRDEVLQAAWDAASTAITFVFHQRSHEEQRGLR

[8] = biological target: SWI/SNF-related matrix-associated actin-dependent regulator of chromatin subfamily A member 2 (Homo sapiens, UniProt P51531); assay: Luminescence-based cell-based high throughput dose response assay to identify activators of the function of SWI/SNF related, matrix associated, actin dependent regulator of chromatin, subfamily a, member 2 (SMARCA2, BRM).; type: functional
[9] = Counterscreen for activators of the function of SWI/SNF related, matrix associated, actin dependent regulator of chromatin, subfamily a, member 2 (SMARCA2, BRM): Luminescence-based cell-based high throughput dose response assay to identify non-selective compounds using the VP16 reporter assay.; type: functional
[10] = biological target: T3, DNA repair protein RAD52 homolog (Homo sapiens, UniProt P43351); type: functional, biochemical
T3 sequence (P43351 whole entry): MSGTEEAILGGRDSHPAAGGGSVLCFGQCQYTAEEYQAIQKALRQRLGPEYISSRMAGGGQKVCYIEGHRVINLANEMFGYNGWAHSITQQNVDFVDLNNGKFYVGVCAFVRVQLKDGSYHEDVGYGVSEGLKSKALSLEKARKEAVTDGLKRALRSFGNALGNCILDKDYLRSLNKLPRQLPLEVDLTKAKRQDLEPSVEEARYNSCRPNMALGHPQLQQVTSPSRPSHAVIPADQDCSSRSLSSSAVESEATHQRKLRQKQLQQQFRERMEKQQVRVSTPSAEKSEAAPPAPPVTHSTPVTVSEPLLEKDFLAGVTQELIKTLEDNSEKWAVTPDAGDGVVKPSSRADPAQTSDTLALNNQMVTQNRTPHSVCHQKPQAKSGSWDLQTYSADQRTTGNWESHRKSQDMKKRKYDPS

[11] = microbe, parasite or virus in culture; type: functional; conditions: Mycobacterium tuberculosis
[12] = biological target: Matrix metalloproteinase-14 (Homo sapiens, UniProt P50281); assay: Dose Response confirmation of uHTS hits for a small molecule inhibitors of MT1-MMP activation in a fluorescence assay set 1.; type: functional
[13] = biological target: T4, RNA-binding protein pos-1 (Caenorhabditis elegans, UniProt G5EF15); assay: inhibitors of POS-1/mex-3 RNA binding, dose response, biochemical, fluorescence polarization (AID 1964);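 note: purified POS-1 fused to maltose binding protein made in E. coli; potency of compounds blocking POS-1 binding to fluorescent RNA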
T4 sequence (G5EF15 whole entry): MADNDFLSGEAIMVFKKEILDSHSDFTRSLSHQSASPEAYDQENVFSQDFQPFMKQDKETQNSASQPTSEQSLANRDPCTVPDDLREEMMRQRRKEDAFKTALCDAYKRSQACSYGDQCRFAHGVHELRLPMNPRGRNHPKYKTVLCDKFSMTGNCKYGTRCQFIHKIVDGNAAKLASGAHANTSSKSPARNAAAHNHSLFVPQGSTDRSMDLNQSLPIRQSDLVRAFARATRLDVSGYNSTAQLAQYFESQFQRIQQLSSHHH

[14] = biological target: T5, Zinc finger protein mex-5 (Caenorhabditis elegans, UniProt Q9XUB2); assay: MEX-5/TCR-2 RNA interaction inhibitors, dose response, biochemical, C. elegans, fluorescence polarization (AID 1960)
T5 sequence (Q9XUB2 whole entry): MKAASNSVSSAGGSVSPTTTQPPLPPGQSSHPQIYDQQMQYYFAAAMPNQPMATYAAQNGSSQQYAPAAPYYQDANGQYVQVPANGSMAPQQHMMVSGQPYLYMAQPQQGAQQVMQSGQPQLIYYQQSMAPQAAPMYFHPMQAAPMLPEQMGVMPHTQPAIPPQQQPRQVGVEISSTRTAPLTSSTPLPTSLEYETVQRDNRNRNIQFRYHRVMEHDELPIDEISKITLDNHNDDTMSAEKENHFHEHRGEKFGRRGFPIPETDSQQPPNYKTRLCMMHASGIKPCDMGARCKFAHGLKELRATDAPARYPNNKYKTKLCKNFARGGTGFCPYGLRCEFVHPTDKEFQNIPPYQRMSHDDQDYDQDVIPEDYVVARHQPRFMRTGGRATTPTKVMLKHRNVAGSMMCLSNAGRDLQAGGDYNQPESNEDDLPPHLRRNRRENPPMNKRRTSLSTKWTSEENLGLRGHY

Beta-lactamase [15] = biological target: Beta-lactamase (Pseudomonas aeruginosa, UniProt Q79MP6);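 note: biochemical dose-response test of metallo-beta-lactamase enzyme inhibition, read out by epi-absorbance; purified recombinant IMP-1 metallo-beta-lactamase with nitrocefin as substrate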
Beta-lactamase [16] = biological target: Beta-lactamase (Salmonella choleraesuis (strain SC-B67), UniProt Q5J463)
Mu-type opioid receptor = Mu-type opioid receptor (Homo sapiens, UniProt P35372); type: functional, cell-based;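 note: U2OS cells with beta-arrestin recruitment to OPRM1 by beta-gal complementation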
[17] = biological target: 5-hydroxytryptamine receptor 2A (Mus musculus, UniProt P35363); type: functional, cell-based;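 note: CHO-K1 cells with tagged receptor and beta-arrestin; agonist potency measured as compound-induced activation of the receptor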
cells [18] = type: functional, cell-based
[19] = biological target: Nuclear receptor subfamily 0 group B member 1 (Homo sapiens, UniProt P51843); type: functional, cell-based;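 note: HEK293T cells transfected with SF-1 and DAX-1 plus StAR promoter luciferase reporter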
HeLa = assay: HeLa cell cytotoxicity, dose response, cytotoxicity control, ATP luminescence, cherry-pick samples (AID 687004); type: functional, cell-based; conditions: Homo sapiens
HEK293 = assay: HEK293T cell cytotoxicity, dose response, cytotoxicity control, ATP luminescence, cherry-pick samples (AID 687005); type: functional, cell-based; conditions: Homo sapiens;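 note: cells exposed to compound for 48 hours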
[20] = HEK293 Cytotoxicity Assay Measured in Cell-Based System Using Plate Reader - 7071-01_Inhibitor_Dose_CherryPick_Activity_Set2.; type: functional
[21] = biological target: T1, Scavenger receptor class B member 1; assay: inhibitors of SR-BI-mediated HDL uptake, dose response, cell-based, ldlA[mSR-BI] CHO, DiI fluorescence, dry powder, set 10 (AID 624029); type: functional
[22] = T. cruzi growth inhibition in host cells, dose response, cell-based, plate reader, dry powder, set 2 (AID 652275); type: functional
[23] = Late stage assay provider results from the probe development effort to identify inhibitors of the Plasmodium falciparum M17 Leucine Aminopeptidase (M17LAP): radiolabel-based cell-based dose response assay to identify compounds that inhibit P. falciparum growth in RBCs Set 2.; type: functional
[24] = inhibitors of intracellular T. cruzi replication, confirmation, NIH3T3 host cells, beta-gal luminescence (AID 2044); type: functional, cell-based;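 note: intracellular parasites grown in NIH/3T3 mouse fibroblasts as host cells; luminescent beta-galactosidase reporter signal from transgenic T. cruzi replicating inside host cells; inhibitors lower the luminescence signal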
[25] = cytotoxicity toward NIH3T3 fibroblasts, dose response, counter-screen, cell-based, ATP luminescence, mouse fibroblasts (AID 2010); type: functional;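 note: cells exposed to compound for about 90 hours before reading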
[26] = THP-1 cell cytotoxicity, dose response, cytotoxicity control for non-replicating M. tuberculosis project (AID 489025); type: functional
[27] = HepG2 cell cytotoxicity, dose response, cytotoxicity control for non-replicating M. tuberculosis project (AID 489018); type: functional; conditions: Mycobacterium tuberculosis
[28] = Vero E6 cell cytotoxicity, dose response, cytotoxicity control for non-replicating M. tuberculosis project, secondary assay (AID 492998); type: functional, VeroE6; conditions: Vero C1008
cells [29] = type: functional
[30] = biological target: T6, Sentrin-specific protease 8 (Homo sapiens, UniProt Q96LD8); type: functional
T6 sequence (Q96LD8 whole entry): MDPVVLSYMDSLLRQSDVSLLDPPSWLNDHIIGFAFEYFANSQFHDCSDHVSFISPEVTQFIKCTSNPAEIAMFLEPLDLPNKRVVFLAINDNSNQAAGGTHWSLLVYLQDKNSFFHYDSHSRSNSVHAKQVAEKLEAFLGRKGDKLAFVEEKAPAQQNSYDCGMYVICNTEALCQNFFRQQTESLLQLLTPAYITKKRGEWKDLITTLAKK

[31] = biological target: T6, Sentrin-specific protease 8; type: functional; remark: listed apart in the source

Sequence of 5-hydroxytryptamine receptor 2A (P35363 whole entry): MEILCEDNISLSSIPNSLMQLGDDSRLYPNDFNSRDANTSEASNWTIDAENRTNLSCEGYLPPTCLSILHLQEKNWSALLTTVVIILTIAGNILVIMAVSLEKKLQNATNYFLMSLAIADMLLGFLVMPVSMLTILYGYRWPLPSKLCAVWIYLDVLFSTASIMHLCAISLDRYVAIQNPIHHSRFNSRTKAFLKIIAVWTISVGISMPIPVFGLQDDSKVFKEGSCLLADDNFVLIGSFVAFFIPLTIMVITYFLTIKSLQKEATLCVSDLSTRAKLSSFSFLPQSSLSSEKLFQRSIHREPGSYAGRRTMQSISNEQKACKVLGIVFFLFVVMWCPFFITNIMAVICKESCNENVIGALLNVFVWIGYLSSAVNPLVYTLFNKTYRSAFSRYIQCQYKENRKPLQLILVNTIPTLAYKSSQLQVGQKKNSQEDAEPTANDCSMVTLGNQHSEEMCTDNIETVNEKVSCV
Sequence of Beta-lactamase (Salmonella choleraesuis (strain SC-B67), UniProt Q5J463) (Q5J463 whole entry): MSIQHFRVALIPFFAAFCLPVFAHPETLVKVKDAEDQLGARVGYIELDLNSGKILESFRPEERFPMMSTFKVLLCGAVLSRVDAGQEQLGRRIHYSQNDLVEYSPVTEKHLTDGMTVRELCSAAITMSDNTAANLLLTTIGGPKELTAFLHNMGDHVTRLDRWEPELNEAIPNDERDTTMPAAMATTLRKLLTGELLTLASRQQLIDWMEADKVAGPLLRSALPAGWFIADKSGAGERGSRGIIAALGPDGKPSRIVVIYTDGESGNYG
Sequence of Mu-type opioid receptor (P35372 whole entry): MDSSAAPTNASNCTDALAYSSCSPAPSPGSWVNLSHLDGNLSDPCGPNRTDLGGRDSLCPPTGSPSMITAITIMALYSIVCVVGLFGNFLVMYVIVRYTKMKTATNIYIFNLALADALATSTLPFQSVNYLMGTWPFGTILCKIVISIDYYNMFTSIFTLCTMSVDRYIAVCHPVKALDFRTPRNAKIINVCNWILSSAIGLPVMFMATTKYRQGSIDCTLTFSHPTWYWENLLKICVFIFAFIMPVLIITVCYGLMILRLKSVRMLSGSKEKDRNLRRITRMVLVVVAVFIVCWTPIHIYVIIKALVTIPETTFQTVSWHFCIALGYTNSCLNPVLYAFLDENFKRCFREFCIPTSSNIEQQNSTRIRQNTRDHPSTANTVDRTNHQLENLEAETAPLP
Sequence of Long-chain-fatty-acid--AMP ligase FadD28 (P9WQ59 whole entry): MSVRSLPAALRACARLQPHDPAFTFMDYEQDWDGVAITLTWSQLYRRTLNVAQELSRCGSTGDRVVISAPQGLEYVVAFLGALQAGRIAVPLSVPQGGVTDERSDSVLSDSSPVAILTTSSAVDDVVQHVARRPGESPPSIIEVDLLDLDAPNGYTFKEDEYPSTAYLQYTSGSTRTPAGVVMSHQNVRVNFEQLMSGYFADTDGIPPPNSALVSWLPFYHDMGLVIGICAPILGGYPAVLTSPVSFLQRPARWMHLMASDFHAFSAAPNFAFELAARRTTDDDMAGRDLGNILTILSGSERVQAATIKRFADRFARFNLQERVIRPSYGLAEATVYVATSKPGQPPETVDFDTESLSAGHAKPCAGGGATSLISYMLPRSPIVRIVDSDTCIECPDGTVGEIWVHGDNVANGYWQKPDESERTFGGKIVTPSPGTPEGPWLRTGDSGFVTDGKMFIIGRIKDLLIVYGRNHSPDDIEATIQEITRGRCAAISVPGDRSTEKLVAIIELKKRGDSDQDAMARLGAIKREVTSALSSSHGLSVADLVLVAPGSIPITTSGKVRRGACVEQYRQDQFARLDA
Sequence of SWI/SNF-related matrix-associated actin-dependent regulator of chromatin subfamily A member 2 (P51531 whole entry): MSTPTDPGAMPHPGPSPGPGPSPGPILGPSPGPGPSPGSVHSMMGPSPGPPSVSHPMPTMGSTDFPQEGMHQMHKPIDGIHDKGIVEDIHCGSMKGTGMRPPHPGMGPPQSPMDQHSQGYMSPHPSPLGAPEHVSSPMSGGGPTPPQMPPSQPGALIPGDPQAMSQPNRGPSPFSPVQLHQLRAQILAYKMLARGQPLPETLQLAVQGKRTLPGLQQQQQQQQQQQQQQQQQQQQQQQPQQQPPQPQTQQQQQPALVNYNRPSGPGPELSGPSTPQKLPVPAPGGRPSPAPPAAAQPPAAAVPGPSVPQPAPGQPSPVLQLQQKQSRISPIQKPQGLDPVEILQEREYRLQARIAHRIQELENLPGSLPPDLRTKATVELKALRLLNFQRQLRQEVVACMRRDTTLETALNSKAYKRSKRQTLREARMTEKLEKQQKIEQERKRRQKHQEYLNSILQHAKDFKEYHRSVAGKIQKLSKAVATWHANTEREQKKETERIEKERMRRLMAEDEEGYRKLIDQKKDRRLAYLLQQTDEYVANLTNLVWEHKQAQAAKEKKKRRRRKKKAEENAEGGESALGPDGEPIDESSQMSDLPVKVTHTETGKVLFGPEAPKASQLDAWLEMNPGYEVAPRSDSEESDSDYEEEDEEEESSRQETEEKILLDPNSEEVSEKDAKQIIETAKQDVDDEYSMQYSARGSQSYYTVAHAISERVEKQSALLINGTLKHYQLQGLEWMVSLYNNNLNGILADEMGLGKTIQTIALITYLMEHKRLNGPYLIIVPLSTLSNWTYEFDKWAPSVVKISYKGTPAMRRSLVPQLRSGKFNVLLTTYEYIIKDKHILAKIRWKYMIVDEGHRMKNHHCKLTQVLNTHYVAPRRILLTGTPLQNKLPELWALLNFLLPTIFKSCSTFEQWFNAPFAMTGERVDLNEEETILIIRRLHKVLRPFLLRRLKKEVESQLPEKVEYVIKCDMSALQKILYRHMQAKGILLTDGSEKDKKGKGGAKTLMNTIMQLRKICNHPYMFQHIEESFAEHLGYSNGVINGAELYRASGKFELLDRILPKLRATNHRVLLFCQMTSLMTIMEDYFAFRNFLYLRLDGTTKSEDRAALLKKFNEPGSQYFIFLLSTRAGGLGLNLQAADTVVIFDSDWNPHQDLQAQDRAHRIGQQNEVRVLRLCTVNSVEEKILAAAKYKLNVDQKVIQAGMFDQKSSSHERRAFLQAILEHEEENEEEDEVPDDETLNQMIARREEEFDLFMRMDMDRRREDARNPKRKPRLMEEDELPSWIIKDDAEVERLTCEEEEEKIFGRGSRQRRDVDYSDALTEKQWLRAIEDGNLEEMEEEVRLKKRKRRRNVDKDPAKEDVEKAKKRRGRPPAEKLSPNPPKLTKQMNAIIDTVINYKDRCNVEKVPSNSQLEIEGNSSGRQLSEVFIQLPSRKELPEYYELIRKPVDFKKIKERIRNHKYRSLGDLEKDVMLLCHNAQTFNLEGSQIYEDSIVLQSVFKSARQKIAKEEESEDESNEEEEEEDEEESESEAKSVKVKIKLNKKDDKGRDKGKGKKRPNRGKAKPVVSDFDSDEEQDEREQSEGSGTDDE
Sequence of ADP-ribosylation factor GTPase-activating protein 1 (Q62848 whole entry, the tested form may be a part): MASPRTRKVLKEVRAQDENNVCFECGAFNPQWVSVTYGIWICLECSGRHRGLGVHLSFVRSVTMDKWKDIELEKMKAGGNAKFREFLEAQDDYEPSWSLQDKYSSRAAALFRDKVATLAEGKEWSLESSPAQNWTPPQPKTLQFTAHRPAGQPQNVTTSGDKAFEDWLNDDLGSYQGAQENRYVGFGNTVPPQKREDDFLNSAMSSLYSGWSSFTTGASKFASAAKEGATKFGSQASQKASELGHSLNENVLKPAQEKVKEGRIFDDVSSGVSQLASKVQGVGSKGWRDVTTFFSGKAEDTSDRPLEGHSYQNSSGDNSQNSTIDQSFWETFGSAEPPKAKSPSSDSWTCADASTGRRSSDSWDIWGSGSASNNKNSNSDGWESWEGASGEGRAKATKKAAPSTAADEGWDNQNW
Sequence of Nuclear receptor subfamily 0 group B member 1 (P51843 whole entry): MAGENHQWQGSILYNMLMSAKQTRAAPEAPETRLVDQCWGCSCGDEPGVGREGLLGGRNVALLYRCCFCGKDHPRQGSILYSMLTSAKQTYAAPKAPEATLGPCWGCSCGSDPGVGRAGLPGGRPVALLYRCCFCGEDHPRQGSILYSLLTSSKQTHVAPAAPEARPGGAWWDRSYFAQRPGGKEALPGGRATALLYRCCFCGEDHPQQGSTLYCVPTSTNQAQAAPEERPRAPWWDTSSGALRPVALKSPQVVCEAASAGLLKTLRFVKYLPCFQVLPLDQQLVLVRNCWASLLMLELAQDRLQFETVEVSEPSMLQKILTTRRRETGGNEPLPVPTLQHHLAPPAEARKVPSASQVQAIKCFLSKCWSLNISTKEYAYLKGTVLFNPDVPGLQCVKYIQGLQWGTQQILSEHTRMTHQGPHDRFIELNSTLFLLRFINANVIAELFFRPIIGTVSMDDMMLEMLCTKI
Sequence of Broad substrate specificity ATP-binding cassette transporter ABCG2 (Q9UNQ0 whole entry): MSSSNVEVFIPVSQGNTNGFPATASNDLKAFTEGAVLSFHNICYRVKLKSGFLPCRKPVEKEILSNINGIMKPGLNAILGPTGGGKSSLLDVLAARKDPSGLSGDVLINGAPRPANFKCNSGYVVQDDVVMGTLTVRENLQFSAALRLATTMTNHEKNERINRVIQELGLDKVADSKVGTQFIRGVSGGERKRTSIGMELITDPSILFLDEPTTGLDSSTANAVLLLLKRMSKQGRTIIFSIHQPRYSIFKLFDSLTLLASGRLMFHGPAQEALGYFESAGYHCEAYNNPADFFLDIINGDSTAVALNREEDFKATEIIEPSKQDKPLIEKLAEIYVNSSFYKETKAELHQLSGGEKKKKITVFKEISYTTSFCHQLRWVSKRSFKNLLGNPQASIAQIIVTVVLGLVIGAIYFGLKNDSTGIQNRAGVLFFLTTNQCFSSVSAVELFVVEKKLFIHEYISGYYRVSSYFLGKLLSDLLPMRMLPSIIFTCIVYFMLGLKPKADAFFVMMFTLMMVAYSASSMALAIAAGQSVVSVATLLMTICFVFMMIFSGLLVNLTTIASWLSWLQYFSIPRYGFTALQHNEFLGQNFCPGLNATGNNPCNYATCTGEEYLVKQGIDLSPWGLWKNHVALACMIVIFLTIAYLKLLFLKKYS

COc1ccc([N+](=O)[O-])cc1NC(=O)c1ccc(Br)s1
IC50 [1]: 35.6 µM (inactive) | IC50 [2]: 20.8 µM (inactive)

Cc1c(C(=O)Nc2ccc(F)cc2)c2ccccn2c1CCc1ccncc1
AC50 [3]: 20.4 µM (active) | EC50 [4]: 6.84 µM (inactive)

O=[N+]([O-])c1ccc(CNc2ccc(Cl)cc2)s1
AC50 [5]: > 100 µM (inactive)

COc1cc(Nc2c3ccccc3nc3ccccc23)cc(OC)c1OC
AC50 [6]: 29.2 µM (active) | AC50 [7]: 14.8 µM (active) | EC50 [8]: > 91.2 µM (inactive) | EC50 [9]: > 91.2 µM (inactive) | AC50 [10]: 5.17 µM (active)

COc1ccc(-c2oc3ccc(-c4ccc(OC)nc4)cc3c2C#CC2(O)CCCCC2)cc1
CC50 [11]: > 40 µM (active) | IC50 [12]: 5.57 µM (active)

COc1ccc(/C=C2\CCCc3c2nc2ccccc2c3C(=O)O)cc1OC
EC50 [13]: 9.28 µM (active) | EC50 [14]: 8.26 µM (inconclusive) | IC50 (Beta-lactamase [15]): > 59.6 µM (inactive) | IC50 (Beta-lactamase [16]): 11.2 µM (inactive)

Cc1ccc(CN2CCN(C(=O)c3ccco3)CC2)cc1
EC50 (Mu-type opioid receptor): 92.5 µM (inactive) | EC50 [17]: 475 nM (active)

CC(=Nc1ccccc1)C1=C(O)C(Cc2cccc(F)c2)NC1=O (centres undefined)
IC50 (cells [18]): > 67.5 µM (inactive) | IC50 [19]: > 67.5 µM (inactive)

C[C@H]1CN([C@@H](C)CO)S(=O)(=O)c2ccc(C#Cc3ccccn3)cc2O[C@@H]1CN(C)Cc1ccccc1
AC50 (HeLa): > 52 µM (inactive) | AC50 (HEK293): 24.2 µM (active) | AC50 [20]: 24.2 µM (active)

CC(C)NC(=O)Nc1ccc2c(c1)C(=O)N([C@@H](C)CO)C[C@@H](C)[C@@H](CN(C)S(=O)(=O)c1ccc(Cl)cc1)O2
AC50 [21]: 69.6 µM (active)

CN(C)C(=O)c1ccc(-c2ccc([C@H]3[C@H](CO)N4CCCCN(C(=O)C5CCC5)C[C@@H]34)cc2)cc1
AC50 [22]: 72 nM (active)

CCC(C)Oc1ccc(CC(=O)NO)cc1 (centres undefined)
IC50 [23]: 16.3 µM (inactive)

Cc1ccccc1NCC(=O)N/N=C\c1ccc([N+](=O)[O-])s1
EC50 [24]: 506 nM (active) | EC50 [25]: > 60 µM (not active) | CC50 [26]: 18.8 µM (active) | CC50 [27]: 16 µM (active) | CC50 [28]: 13.8 µM (active) | IC50 (cells [29]): 5.71 µM (active) | IC50 [30]: 46.7 µM (active) | IC50 [31]: 90.4 µM (inactive)
